Laboratory results from patent US20220242843A1, “PROCESS FOR PREPARING A COUMARIN-CAGED FORSKOLIN DERIVATIVE, FORSKOLIN DERIVATIVE AND USE OF SAID FORSKOLIN DERIVATIVE” (Forschungszentrum Juelich GmbH, priority 2019, published 2022).

Columns and labels:
[1] = Photolysis of JCF 1 in MeOH under 368.8 nm irradiation, followed by mass spectrometry; assay type: physicochemical; details: 100 μM in MeOH; 368.8 nm±5 nm; approximately 12.5 mW/cm^2
Method: The photolysis of JCF 1 is carried out under controlled conditions in order to quantitatively detect the release of forskolin carbamate 10 as a function of the amount of light absorbed: 0.16 ml of a 100 μM solution of JCF 1 in MeOH is added to a quartz glass cuvette (width: 4 mm; depth (optical path): 10 mm->fill level 4 mm). The “Intensilight” light source (excitation lamp of a Nikon TI Eclipse fluorescence microscope) is used as the excitation source, the light of which is guided through a gel light guide (active diameter: 4 mm) and a narrowband bandpass filter (368.8 nm±5 nm) onto the liquid column in the cuvette. […]
The irradiated samples are then examined using mass spectrometry (mass spectrometer: MSQ Plus from ThermoScientific; ionization: ESI-interface with a cone voltage of 50 V, eluent: methanol, water, glacial acetic acid, /50, 50, 0.02/vol, vol, vol; flow rate 0.2 ml/min; direct injections of 20 μl of the respective irradiated samples via a Rheodyne injection valve (7725i)). The mass trace m/z 511 and the mass range m/z 807-811 are recorded. The integrals of the peaks of the chromatogram of the mass trace m/z 511 (see FIG. 10) are evaluated. With an exposure time of 320 seconds, no more signals can be detected in the mass range m/z 807-811 (starting compound), and therefore a complete conversion can be assumed after this time under the above-described conditions.

[2] = test system: peripheral membrane adenylyl cyclases; test: Validation on eukaryotic cell line expressing CNG channel and GCaMP3.0: Ca2+-dependent fluorescence as readout of intracellular cAMP increase after UV exposure; assay type: cell-based; details: 100 μM IBMX
Source text: The substance JCF 1 described according to embodiments of the invention was validated on eukaryotic cell cultures in which the increase in the intracellular cAMP concentration, which results from the binding of the biologically active forskolin carbamate 10 (FIG. 9) to peripheral membrane adenylyl cyclases which are endogenously present in the cells, using a fluorescence-based sensitive detection process.^14 In this regard, a cell line was used in which a cyclic-nucleotide-gated (CNG) ion channel is constitutively expressed. These channels are typically expressed in olfactory sensory neurons of the olfactory epithelium and open when the intracellular cAMP concentration increases. […] The inflow of Ca^2+ can be detected with Ca^2+-sensitive dyes or genetically encoded Ca^2+ indicators, such as GCaMP sensors, in a fluorescence reader or with a fluorescence microscope. […] The Ca^2+-dependent change in the fluorescence change can be detected and quantified with the aforementioned processes.
Cells of the cell line described were seeded in 96-well multi-well plates (MWP) and increased to a density of approximately 25,000. […] The basal fluorescence in the wells of 96-well MWP was then measured with a fluorescence reader. […] The basal fluorescence in the wells was then measured again before the entire 96-well MWP plate was exposed to light using a UV lamp device (FIG. 11, FIG. 12). […]

C=C[C@@]1(C)CC(=O)[C@]2(O)[C@@]3(C)[C@@H](O)CCC(C)(C)[C@@H]3[C@H](OC(=O)NCCN(C)C(=O)OCc3cc(=O)oc4cc(O)c(Br)cc34)[C@H](OC(C)=O)[C@@]2(C)O1 [JCF 1, (3R,4aR,5S,6S,6aS,10S,10aR,10bS)-6-(((2-((((6-bromo-7-hydroxy-2-oxo-2H-chromen-4-yl)methoxy)carbonyl)(methyl)amino)ethyl)carbamoyl)oxy)-10,10b-dihydroxy-3,4a,7,7,10a-pentamethyl-1-oxo-3-vinyldodecahydro-1H-benzo[f]chromen-5-yl acetate]
exposure time after which no more signals of starting compound (m/z 807-811) can be detected; complete conversion assumed [1]: 320 s
change in fluorescence relative to the values achieved by adding non-caged NKH 477 ([2]; 10 μM and 30 μM, after UV exposure): approximately 50%
Ca2+-dependent fluorescence emission after UV exposure (release of forskolin carbamate 10) ([2]; cells loaded with 10 μM and 30 μM for 30 min in the dark, UV lamp exposure): significant increase
